Columns and labels:
[1] = molecular target: human CB1 receptor (hCB1) (Homo sapiens, UniProt P21554); assay: cell-based; type: cell-based; conditions: for +/− HCB1: agonist or inverse agonist at hCB1
Summary of the method: (§1)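 Readout: LANCE TR-FRET cAMP, back-calculated from a concurrent standard curve and scaled between forskolin-only and forskolin + 1 μM CP55,940 wells. EC50 and intrinsic activity came from four-parameter fits.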

rat CB2 receptor (rCB2) = molecular target: T1, rat CB2 receptor (rCB2) (Rattus norvegicus, UniProt Q9QZN9); assay: cell-based; type: cell-based; conditions: for +/− RCB2: agonist or inverse agonist at rCB2
T1 sequence (Q9QZN9 1-360): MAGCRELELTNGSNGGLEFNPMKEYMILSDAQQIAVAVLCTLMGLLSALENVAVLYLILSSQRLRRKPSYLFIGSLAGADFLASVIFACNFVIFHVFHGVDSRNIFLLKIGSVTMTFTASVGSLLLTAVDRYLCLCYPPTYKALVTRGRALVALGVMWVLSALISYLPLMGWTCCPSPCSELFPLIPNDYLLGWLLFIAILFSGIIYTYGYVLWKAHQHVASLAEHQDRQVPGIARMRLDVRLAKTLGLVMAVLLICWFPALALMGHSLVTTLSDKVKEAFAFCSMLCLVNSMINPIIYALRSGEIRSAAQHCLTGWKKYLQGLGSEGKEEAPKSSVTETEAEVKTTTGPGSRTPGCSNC
Summary of the method: as §1

Chain of human CB1 receptor (hCB1) (P21554 whole entry): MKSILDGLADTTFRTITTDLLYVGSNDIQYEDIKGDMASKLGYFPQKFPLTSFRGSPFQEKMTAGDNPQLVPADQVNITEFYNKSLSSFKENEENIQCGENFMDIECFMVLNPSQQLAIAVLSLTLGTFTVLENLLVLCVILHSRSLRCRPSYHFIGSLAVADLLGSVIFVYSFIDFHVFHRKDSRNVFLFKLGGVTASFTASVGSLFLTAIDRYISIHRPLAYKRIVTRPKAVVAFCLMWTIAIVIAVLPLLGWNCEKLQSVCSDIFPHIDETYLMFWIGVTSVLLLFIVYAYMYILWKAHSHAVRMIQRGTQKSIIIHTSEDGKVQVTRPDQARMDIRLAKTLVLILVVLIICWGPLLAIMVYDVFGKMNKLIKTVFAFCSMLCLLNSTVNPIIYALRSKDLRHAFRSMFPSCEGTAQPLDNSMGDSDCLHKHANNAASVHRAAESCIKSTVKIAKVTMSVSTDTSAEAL

SMILES | EC50 [1] [µM] | +/− RCB2 (rat CB2 receptor (rCB2)) | +/− HCB1 [1] | EC50 (rat CB2 receptor (rCB2)) [µM]
CNC(=O)[C@@H](NC(=O)c1nc(-c2cccs2)n2c1CN(C)CCC2)C(C)(C)C [Compound 349, (S)-N-(3,3-dimethyl-1-(methylamino)-1-oxobutan-2-yl)-8-methyl-3-(thiophen-2-yl)-6,7,8,9-tetrahydro-5H-imidazo[1,5-a][1,4]diazepine-1-carboxamide] | > 10 | + |  | 
CNC(=O)[C@@H](NC(=O)c1nc(-c2ccc(OC)c(C)c2)n2c1CN(C)CCC2)C(C)(C)C [Compound 350, (S)-N-(3,3-dimethyl-1-(methylamino)-1-oxobutan-2-yl)-3-(4-methoxy-3-methylphenyl)-8-methyl-6,7,8,9-tetrahydro-5H-imidazo[1,5-a][1,4]diazepine-1-carboxamide] | > 10 | − |  | 
CNC(=O)[C@@H](NC(=O)c1nc(-c2cc3ccccc3o2)n2c1CN(C)CCC2)C(C)(C)C [Compound 351, (S)-3-(benzofuran-2-yl)-N-(3,3-dimethyl-1-(methylamino)-1-oxobutan-2-yl)-8-methyl-6,7,8,9-tetrahydro-5H-imidazo[1,5-a][1,4]diazepine-1-carboxamide] | > 10 | + |  | 
CNC(=O)[C@@H](NC(=O)c1nc(-c2cscc2C)n2c1CN(C)CCC2)C(C)(C)C [Compound 352, (S)-N-(3,3-dimethyl-1-(methylamino)-1-oxobutan-2-yl)-8-methyl-3-(4-methylthiophen-3-yl)-6,7,8,9-tetrahydro-5H-imidazo[1,5-a][1,4]diazepine-1-carboxamide] | > 10 | + |  | 
CNC(=O)[C@@H](NC(=O)c1nc(-c2ccccc2F)n2c1CN(C)CCC2)C(C)(C)C [Compound 353, (S)-N-(3,3-dimethyl-1-(methylamino)-1-oxobutan-2-yl)-3-(2-fluorophenyl)-8-methyl-6,7,8,9-tetrahydro-5H-imidazo[1,5-a][1,4]diazepine-1-carboxamide] | > 10 | + |  | 
CNC(=O)[C@@H](NC(=O)c1nc(-c2csc3ccccc23)n2c1CN(C)CCC2)C(C)(C)C [Compound 354, (S)-3-(benzo[b]thiophen-3-yl)-N-(3,3-dimethyl-1-(methylamino)-1-oxobutan-2-yl)-8-methyl-6,7,8,9-tetrahydro-5H-imidazo[1,5-a][1,4]diazepine-1-carboxamide] | > 10 | − |  | 
CNC(=O)[C@@H](NC(=O)c1nc(-c2ccc(F)cc2F)n2c1CN(C)CCC2)C(C)(C)C [Compound 355, (S)-3-(2,4-difluorophenyl)-N-(3,3-dimethyl-1-(methylamino)-1-oxobutan-2-yl)-8-methyl-6,7,8,9-tetrahydro-5H-imidazo[1,5-a][1,4]diazepine-1-carboxamide] |  | + | + | 
CNC(=O)[C@@H](NC(=O)c1nc(-c2cccc(Cl)c2F)n2c1CN(C)CCC2)C(C)(C)C [Compound 356, (S)-3-(3-chloro-2-fluorophenyl)-N-(3,3-dimethyl-1-(methylamino)-1-oxobutan-2-yl)-8-methyl-6,7,8,9-tetrahydro-5H-imidazo[1,5-a][1,4]diazepine-1-carboxamide] | > 10 |  |  | > 10
CNC(=O)[C@@H](NC(=O)c1nc(-c2cc(Cl)c(C)cc2F)n2c1CN(C)CCC2)C(C)(C)C [Compound 357, (S)-3-(5-chloro-2-fluoro-4-methylphenyl)-N-(3,3-dimethyl-1-(methylamino)-1-oxobutan-2-yl)-8-methyl-6,7,8,9-tetrahydro-5H-imidazo[1,5-a][1,4]diazepine-1-carboxamide] | > 10 |  |  | > 10
CNC(=O)[C@@H](NC(=O)c1nc(-c2ccc(OC)cc2F)n2c1CN(C)CCC2)C(C)(C)C [Compound 358] | > 10 | − |  | 
CNC(=O)[C@@H](NC(=O)c1nc(-c2cc(F)ccc2F)n2c1CN(C)CCC2)C(C)(C)C [Compound 359, (S)-3-(2,5-difluorophenyl)-N-(3,3-dimethyl-1-(methylamino)-1-oxobutan-2-yl)-8-methyl-6,7,8,9-tetrahydro-5H-imidazo[1,5-a][1,4]diazepine-1-carboxamide] | > 10 | + |  | 
CNC(=O)[C@@H](NC(=O)c1nc(-c2ccc(C)c(F)c2)n2c1CN(C)CCC2)C(C)(C)C [Compound 360, (S)-N-(3,3-dimethyl-1-(methylamino)-1-oxobutan-2-yl)-3-(3-fluoro-4-methylphenyl)-8-methyl-6,7,8,9-tetrahydro-5H-imidazo[1,5-a][1,4]diazepine-1-carboxamide] | > 10 |  |  | > 10
CNC(=O)[C@@H](NC(=O)c1nc(-c2cc(Cl)ccc2F)n2c1CN(C)CCC2)C(C)(C)C [Compound 361, (S)-3-(5-chloro-2-fluorophenyl)-N-(3,3-dimethyl-1-(methylamino)-1-oxobutan-2-yl)-8-methyl-6,7,8,9-tetrahydro-5H-imidazo[1,5-a][1,4]diazepine-1-carboxamide] |  | + | + | 
CNC(=O)[C@@H](NC(=O)c1nc(-c2cc(C)ccc2F)n2c1CN(C)CCC2)C(C)(C)C [Compound 362, (S)-N-(3,3-dimethyl-1-(methylamino)-1-oxobutan-2-yl)-3-(2-fluoro-5-methylphenyl)-8-methyl-6,7,8,9-tetrahydro-5H-imidazo[1,5-a][1,4]diazepine-1-carboxamide] | > 10 | + |  | 
CNC(=O)[C@@H](NC(=O)c1nc(-c2cc(C(F)(F)F)ccc2F)n2c1CN(C)CCC2)C(C)(C)C [Compound 363, (S)-N-(3,3-dimethyl-1-(methylamino)-1-oxobutan-2-yl)-3-(2-fluoro-5-(trifluoromethyl)phenyl)-8-methyl-6,7,8,9-tetrahydro-5H-imidazo[1,5-a][1,4]diazepine-1-carboxamide] | > 10 | − |  | 
CNC(=O)[C@@H](NC(=O)c1nc(-c2cccc(C(F)(F)F)c2F)n2c1CN(C)CCC2)C(C)(C)C [Compound 364, (S)-N-(3,3-dimethyl-1-(methylamino)-1-oxobutan-2-yl)-3-(2-fluoro-3-(trifluoromethyl)phenyl)-8-methyl-6,7,8,9-tetrahydro-5H-imidazo[1,5-a][1,4]diazepine-1-carboxamide] | > 10 | − |  | 
CNC(=O)[C@@H](NC(=O)c1nc(-c2c(F)cccc2OC)n2c1CN(C)CCC2)C(C)(C)C [Compound 365, N-((S)-3,3-dimethyl-1-(methylamino)-1-oxobutan-2-yl)-3-(2-fluoro-6-methoxyphenyl)-8-methyl-6,7,8,9-tetrahydro-5H-imidazo[1,5-a][1,4]diazepine-1-carboxamide] | > 10 | + |  | 
CNC(=O)[C@@H](NC(=O)c1nc(-c2ccc(C)cc2Cl)n2c1CN(C)CCC2)C(C)(C)C [Compound 367, (S)-3-(2-chloro-4-methylphenyl)-N-(3,3-dimethyl-1-(methylamino)-1-oxobutan-2-yl)-8-methyl-6,7,8,9-tetrahydro-5H-imidazo[1,5-a][1,4]diazepine-1-carboxamide] | > 10 |  |  | > 10
CNC(=O)[C@@H](NC(=O)c1nc(-c2ccc(C(F)(F)F)cc2F)n2c1CN(C)CCC2)C(C)(C)C [Compound 368, (S)-N-(3,3-dimethyl-1-(methylamino)-1-oxobutan-2-yl)-3-(2-fluoro-4-(trifluoromethyl)phenyl)-8-methyl-6,7,8,9-tetrahydro-5H-imidazo[1,5-a][1,4]diazepine-1-carboxamide] |  | + | + | 
CNC(=O)[C@@H](NC(=O)c1nc(-c2cccc(F)c2F)n2c1CN(C)CCC2)C(C)(C)C [Compound 369, (S)-3-(2,3-difluorophenyl)-N-(3,3-dimethyl-1-(methylamino)-1-oxobutan-2-yl)-8-methyl-6,7,8,9-tetrahydro-5H-imidazo[1,5-a][1,4]diazepine-1-carboxamide] | > 10 | + |  | 
CNC(=O)[C@@H](NC(=O)c1nc(-c2cc(Cl)c(F)cc2F)n2c1CN(C)CCC2)C(C)(C)C [Compound 370, (S)-3-(5-chloro-2,4-difluorophenyl)-N-(3,3-dimethyl-1-(methylamino)-1-oxobutan-2-yl)-8-methyl-6,7,8,9-tetrahydro-5H-imidazo[1,5-a][1,4]diazepine-1-carboxamide] | > 10 | + |  | 
CNC(=O)[C@@H](NC(=O)c1nc(-c2cc(F)c(F)cc2F)n2c1CN(C)CCC2)C(C)(C)C [Compound 371, (S)-N-(3,3-dimethyl-1-(methylamino)-1-oxobutan-2-yl)-8-methyl-3-(2,4,5-trifluorophenyl)-6,7,8,9-tetrahydro-5H-imidazo[1,5-a][1,4]diazepine-1-carboxamide] |  | + | + | 
CNC(=O)[C@@H](NC(=O)c1nc(-c2ccc(F)c(Cl)c2)n2c1CN(C)CCC2)C(C)(C)C [Compound 372, (S)-3-(3-chloro-4-fluorophenyl)-N-(3,3-dimethyl-1-(methylamino)-1-oxobutan-2-yl)-8-methyl-6,7,8,9-tetrahydro-5H-imidazo[1,5-a][1,4]diazepine-1-carboxamide] | > 10 | + |  | 
CNC(=O)[C@@H](NC(=O)c1nc(-c2ccc(Cl)c(F)c2)n2c1CN(C)CCC2)C(C)(C)C [Compound 373] | > 10 | + |  | 

From patent US7517874B2 (priority 2007, dated 2009)
